Experimental data as given in US8993568B2, “Morpholinyl derivatives useful as MOGAT-2 inhibitors” (Eli Lilly and Company, priority 2012, dated 2015).
Each block holds one molecule with its values, some of them ahead of it.

How the values were obtained:
TAG absorption = test: Dog Oil Bolus Model (plasma triglyceride after olive oil); assay type: in vivo, dog (male beagles)
Protocol: Pharmacological Effects in a Dog Oil Bolus Model
Inhibiting MOGAT-2 found in the small intestine may be useful for treating hypertriglyceridemia caused by excessive fat intake. To assess the ability of the exemplified compounds to inhibit TAG absorption, twenty one male beagles (n=7 per treatment group) are enrolled for each study, each dog selected to have a body weight between 9-13 kg. House the dogs in cages with a standard light cycle (12 hours light and 12 hours dark); at room temperature: 72±8° F.; and at 30%-70% relative humidity. Fast the dogs for 16 hours prior to the start of the study, then dose the fasted dogs with vehicle (1% HEC, 0.25%, Tween 80, Antifoam) or one of the test compounds in that vehicle. Bleed the dogs one hour after dosing, (0.5 ml from the jugular vein) for a time 0 sample. Dose the dogs with olive oil (Sigma Catalog#: O-1514, 5 ml/kg) immediately after collection of the time 0 sample. Collect samples into an EDTA tube on ice at 1.5, 2, 3, 5, 7, and 9 hrs post compound/vehicle dosing. Centrifuge the samples at […] for 15 min and analyze (Roche Cat no. 1877771) for plasma total triglyceride using a Roche Hitachi 917. For plasma TAG 18.1—18.1—18.1 measurement, extract the samples and perform LC/MS/MS analysis similarly to that described above in MOGAT-2 Cell Assay using 10 μL of plasma/.
The analyte is the [M+NH4]+ ion of TAG 18:1 18:1 18:1, which has a mass of 902.8 m/z; the internal standard is D5 TAG 16:0 16:0 16:0, which has a mass of 829.8 m/z. Report the ratio of the 603.5 m/z daughter ion of 902.8 m/z (TAG 18:1 18:1 18:1) and the 556.5 m/z daughter ion of 829.8 m/z (D5 TAG 16:0 16:0 16:0 internal standard) changes in TAG 18:1 18:1 18:1 relative amount. Calculate the net plasma TAG AUC from total TAG AUC minus baseline TAG AUC using Graphpad Prism4: (Net AUCTAG=AUCTAG post oil bolus−AUCTAG at 0 hour). The percent inhibition of plasma triglyceride is calculated as follows: the (oil bolus group mean of net TAG AUC−oil bolus group mean of net TAG AUC with compound treatment/oil bolus group mean of net TAG AUC)*100. The final statistic analysis uses Dunnett's method of One way Anova for comparison with the control. All Net TAG AUC values are transformed to ranked averaged AUC for comparison to limit the variability within the studies. The ability of exemplified compounds of the present invention to inhibit MOGAT-2 activity and reduce TAG absorption in vivo can be further evaluated according to this assay.

human MOGAT-2 = human MOGAT-2 (Homo sapiens (Human), UniProt Q3SYC2); test: MOGAT-2 Cell Assay (Caco-2 cells stably transfected with human MOGAT-2, HDG substrate, LC-MS); assay type: cell-based; conditions: Caco-2 cells expressing human MOGAT-2; value (Std Dev., n)
Chain of human MOGAT-2 (Q3SYC2 whole entry): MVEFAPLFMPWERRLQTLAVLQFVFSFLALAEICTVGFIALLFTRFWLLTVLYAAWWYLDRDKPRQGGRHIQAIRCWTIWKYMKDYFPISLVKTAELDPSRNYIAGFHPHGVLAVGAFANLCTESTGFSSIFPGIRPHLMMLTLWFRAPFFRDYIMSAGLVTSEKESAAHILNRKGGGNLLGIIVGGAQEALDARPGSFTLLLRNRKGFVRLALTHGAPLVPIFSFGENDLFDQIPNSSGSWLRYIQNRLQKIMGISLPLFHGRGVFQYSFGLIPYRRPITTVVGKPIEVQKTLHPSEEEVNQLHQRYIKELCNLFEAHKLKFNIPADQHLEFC
Protocol: Inhibitory Activity in MOGAT-2 Cell Assay
The inhibitory activity of compounds against human MOGAT-2 in a cell environment is evaluated in this assay. […] The substrate is delivered to cells using as a mixture with DOPC in the form of sonicated vesicles.
Seed the Caco2 cells onto 100 mm dishes to be 80% confluent after 24 hours in complete media (3/1 DMEM: F12+10% FBS+20 mM HEPES+gentamicin). Transfect the cells with hMOGAT-2 plasmid (MOGAT-2-pCDNA3.1-Hygro) using Lipofectamine 2000 (Invitrogen). After a 6 hour exposure to the transfection mixture, wash the cells three times in PBS and then add media. Incubate the cells for an additional 18 hours incubation, trypsinize the cells and serially dilute them into 100 mm dishes. Add complete media+400 μg/ml hygromycin and incubate until clones appear. Isolate and transfer the clones into 24 well dishes and grow to confluence. Prepare the RNAs from these clones using a Qiagen RNAeasy kit. Perform Taqman analysis using an ABI inventoried assay (HS00228262) on a 7900 Sequence Detection System (ABI).
Mix 2-O-hexadecylglycerol (“HDG”, Biosynth Chemistry & Biology, # H-1806, 562.7 μl of 20 mg/ml) and DOPC (14.3 ml of 20 mg/ml) in chloroform in a glass tube; dry first under N2 gas; and then under reduced pressure for additional 30 minutes. Add 20 ml of buffer (150 mM Tris-Cl pH 7.4, 250 mM sucrose, 1 mM EDTA) to the dried HDG/DOPC mixture while sonicating until the solution becomes clear. Plate the Caco2 cells into a poly-D-lysine coated 96-well plate (the “Cell Plate”) at 37° C., 5% CO2 overnight. Remove the growth media and pretreat the cells with the test compound in DMEMF12 (3:1) media (GIBCO 93-0152DK) containing 2% BSA (Sigma) for 30 minutes. Treat the cells with one test compound in 2% BSA DMEMF12 (3:1) media containing 40 μM of oleic acid and 800 μM of 8.9:91.9 (molar ratio) HDG/DOPC for 4 hours. Trypsinize the cells with 50 μl of trypsin solution and add 50 μl of PBS. Immediately freeze the cells on dry ice and store at −20° C. for LC-MS analysis. […]

[1] = 30 mg/kg PO, combined three studies
[2] = 75 mg/kg PO, combined two studies

Structure (SMILES): C[C@@H](NS(C)(=O)=O)c1ccc(CN2CCO[C@@H](c3ccc(F)cc3)C2)cc1.O=C(O)/C=C\C(=O)O [Example 2, N-[(1R)-1-(4-{[(2S)-2-(4-Fluorophenyl)morpholin-4-yl]methyl}phenyl)ethyl]methanesulfonamide maleate]
inhibition of 18.1 TAG (plasma TAG 18:1 18:1 18:1) (TAG absorption; [1]): 45%
inhibition of TAG absorption (net plasma total TAG AUC) (TAG absorption; [1]): 43%
reduction in excursion of postprandial triglycerides (TAG absorption; 30 mg/kg and 75 mg/kg, combined studies, p<0.05): statistically significant (p<0.05) reduction
inhibition of 18.1 TAG (plasma TAG 18:1 18:1 18:1) (TAG absorption; [2]): 63%
inhibition of TAG absorption (net plasma total TAG AUC) (TAG absorption; [2]): 64%

IC50 (human MOGAT-2): 98 nM
Structure (SMILES): C[C@@H](NS(C)(=O)=O)c1ccc(CN2CCOC(c3cccc(C(F)(F)F)c3)C2)cc1 (single isomer, unassigned; isomer 2) [Example 11]

IC50 (human MOGAT-2): 40 nM
Structure (SMILES): CS(=O)(=O)N[C@@H](c1ccc(CN2CCOC(c3ccc(F)cc3)C2)cc1)C(F)(F)F (single isomer, unassigned; isomer 1) [Example 14]

IC50 (human MOGAT-2): 16 nM
Structure (SMILES): CS(=O)(=O)N[C@@H](c1ccc(CN2CCOC(c3ccccc3Cl)C2)cc1)C(F)(F)F (single isomer, unassigned; isomer 2) [Example 5]
